Test results published in patent publication US4698332A, “Expectorant” (Mect Corporation, priority 1984, dated 1987).
Structures can show the parent of a compound that is named as a salt. Where two headings read alike, the source gives them in different places.

What was measured:
[1] = Rheological properties and pH of purulent sputum after sodium salt treatment (Example 10); set-up: species or system human; details: 1 mg/ml sputum
Procedure: (§1) The sputum used as the specimens was collected from 12 samples of patients suffering from chronic obstructive lung disease. N-acetylneuraminic acid was added to the specimen sputum in the ratios of 5 mg/ml sputum and 1 mg/ml sputum, and the specimen was left for 1 hour at 4° C. before measurement. Sputum which has not been treated by N-acetylneuraminic acid was used as a comparison example. A palatine mucosa obtained from a decapitated frog head was kept at constant temperature and humidity until the mucus liquid of the frog itself depleted. The specimen sputum was placed on the dried palatine mucosa, and the speed of movement of the sputum was observed through a noumenal microscope, thus measuring the MTR. The pH value of the sputum was measured by means of an electronic model HM-SAp pH meter, while the spinnability was measured by a device developed by Nagaoka and Yamanaka (disclosed in Transactions of 2nd Symposium of Cough and sputum, published July 20, 1979). The yield value was measured by Dulfano's double-tube method which is shown in the American Review of Respiratory Diseases, Vol. 104, p88, 1971.
(§2) Effect of sodium salt of N-acetylneuraminic acid on sputum was examined in accordance with the testing method explained in connection with Example 5.

[2] = system: purulent sputum from patients with diffuse panbronchiolitis; assay: MTR of purulent sputum after sodium salt treatment (Example 10); set-up: species or system human sputum; frog palatine mucosa; details: 1 mg/ml sputum
Procedure: as §1, §2

rat = assay: Acute toxicity test of sodium salt of N-acetylneuraminic acid, rat (Example 11); format: in vivo, SD rats; details: inhalation, 1hr exposure to mist
Procedure: (§3) A test was conducted to examine the acute toxicity of sodium salt of N-acetylneuraminic acid, using mice, rats, and guinea pig by means of per as, subcutaneous injection, intravenous injection, intraperitoneal injection, and inhalation.
(§4) 20% (W/V) dissolved in distilled water
(§5) Inhalation was conducted by 1hr exposure to mist.

[3] = as above; format: in vivo, SD rats; details: in vivo
Procedure: as §3, §4, §5

ciliated cell = assay: Rotating ciliated explant (Example 9, Table 7); format: cell-based; details: for activation at 100 µg/mL: 10^-1 mg/ml; for activation at 100 µg/mL / activation at 10 µg/mL / activation at 1 µg/mL / activation at 0.1 µg/mL: mean ± SD, > 20.0 significant, read-out: Acceleration (rotating ciliated explant); for activation at 10 µg/mL: 10^-2 mg/ml (terbutaline 1-^-2 [sic]); for activation at 0.1 µg/mL: 10^-4 mg/ml
Procedure: Human ciliated cells were collected from a normal trachea by means of a branchoscope, the ciliated cells being separated by rubbing the bronchus while observing through the branchoscope, while the collection of frog cilitated cells was conducted by rubbing the palatine mucosta, without being specially careful. […] The groups of cells were transferred to a cover slip and one drop of chicken plasma (prepared by Difco Company) and one drop of 50% chicken embryo extract were added to the cells, thus forming clots. The rotary motion in the clots was recorded by means of a video recorder and the number of rotations per minute was measured. The agents were dissolved in the Medium 199 and were injected through a tube attached to a rose chamber. The state of rotary motion 5 minutes, 10 minutes and 15 minutes after the injection were recorded by means of a video recorder, and the number of revolutions was measured.
A test was conducted to examine the above-mentioned effect by using sodium salt of N-Acetylneuraminic Acid, in accordance with the same testing method as that of Example 2.

[4] = Acute toxicity test of sodium salt of N-acetylneuraminic acid, mouse (Example 11); set-up: species or system ICR mice; details: in vivo
Procedure: as §3, §4

palatine mucosa of frog = assay: Mucociliary transport of frog palatine mucosa (Example 8, Table 6); format: cell-based; details: for activation at 100 µg/mL: 10^-1 mg/ml; for activation at 100 µg/mL / activation at 10 µg/mL / activation at 1 µg/mL / activation at 0.1 µg/mL: mean ± SD, over 20.0% significant, read-out: Acceleration (mucociliary transport); for activation at 10 µg/mL: 10^-2 mg/ml; for activation at 1 µg/mL: 10^-3 mg/ml; for activation at 0.1 µg/mL: 10^-4 mg/ml
Procedure: Mucociliary transport was measured by the particle transport method. After decapitation of a frog, the surface of the palatine mucosa was separated with minimized damage and of fixed to a cork plate in a Petri dish which was then filled with 20 ml of Ringer's solution (trishydrochloric acid). The palatine mucosa was left in this state for 30 minutes before the commencement of measurement. For measurement, the Ringer's solution was removed and fine pieces of cork (capable of passing pharmaceutical sieve No. 5 but not capable of passing No. 6) were placed on the surface of the palatine mucosa, and the time (in seconds) required for the cork piece to move 1 cm was measured. The duration of movement, i.e., moving speed, was measured also in the state immediately after the removal of the Ringer's solution or pharmaceutical solution.

[5] = Acute toxicity test of sodium salt of N-acetylneuraminic acid, guinea pig (Example 11); set-up: species or system Hartley guinea pig; details: in vivo, intravenous injection, 95% 2,355-4,087
Procedure: as §3
Hartley guinea pig: 6 weeks old
as §4

[6] = ip, intraperitoneal injection, first line (sex not given)
[7] = ip, intraperitoneal injection, second line (sex not given)
[8] = po, per os, first line (sex not given)
[9] = po, per os, second line (sex not given)
[10] = sc, subcutaneous injection, first line (sex not given)
[11] = sc, subcutaneous injection, second line (sex not given)

CC(=O)N[C@H]1[C@H]([C@H](O)[C@H](O)CO)OC(O)(C(=O)O)C[C@@H]1O (stereo partly drawn) [sodium salt of N-acetylneuraminic acid]
Change of spinnability [1]: generally increased | Change of sputum pH [1]: significant increase in pH value | Change of yield value [1]: a reduction was observed with regard to the yield value | Yield value after treatment ([1]; 15 specimens, mean ± S.D., before 0.8 ± 1.5): 0.3 ± 0.6 mmH2 O | pH after treatment ([1]; 15 specimens, mean ± S.D., before 7.48 ± 0.41, P < 0.001): 7.91 ± 0.43 | Spinnability after treatment ([1]; 15 specimens, mean ± S.D., before 13 ± 14): 21 ± 28 mm | Change of sputum MTR [2]: significant increase in pH value and MTR | MTR after treatment ([2]; 15 specimens, mean ± S.D., before 9 ± 5, P < 0.01): 12 ± 5 mm/min. | LD50 (rat; first line (sex not given)): > 4,000 mg/m^3 | LD50 (rat; second line (sex not given)): > 4,000 mg/m^3 | LD50 at 336 h [3, 6]: > 5000 mg/kg | LD50 at 336 h [3, 7]: > 5000 mg/kg | LD50 at 336 h ([3]; iv, intravenous injection, first line (sex not given), 95% 2,638-3,342): 2970 mg/kg | LD50 at 336 h ([3]; iv, intravenous injection, second line (sex not given)): > 5000 mg/kg | LD50 at 336 h [3, 8]: > 5000 mg/kg | LD50 at 336 h [3, 9]: > 5000 mg/kg | LD50 at 336 h [3, 10]: > 5000 mg/kg | LD50 at 336 h [3, 11]: > 5000 mg/kg | Effect on number of rotations (ciliated cell; 10^-3 mg/ml): A significant number of rotations was observed | activation at 100 µg/mL (ciliated cell; 5 min, 5 min after perfusion): 0% | activation at 10 µg/mL (ciliated cell; 5 min, 5 min after perfusion): 1.5 ± 11.6% | activation at 1 µg/mL (ciliated cell; 5 min, 10^-3 mg/ml, 5 min after perfusion): 11.6 ± 29.8% | activation at 0.1 µg/mL (ciliated cell; 5 min, 5 min after perfusion): -3.4 ± 9.7% | activation at 100 µg/mL (ciliated cell; 10 min, 10 min after perfusion): 4.7 ± 6.6% | activation at 10 µg/mL (ciliated cell; 10 min, 10 min after perfusion): 2.1 ± 18.2% | activation at 1 µg/mL (ciliated cell; 10 min, 10^-3 mg/ml, 10 min after perfusion): 20.7 ± 27.5% | activation at 0.1 µg/mL (ciliated cell; 10 min, 10 min after perfusion): 0.6 ± 10.6% | activation at 100 µg/mL (ciliated cell; 0.25 h, 15 min after perfusion): 15.4 ± 9.3% | activation at 10 µg/mL (ciliated cell; 0.25 h, 15 min after perfusion): 3.7 ± 29.3% | activation at 1 µg/mL (ciliated cell; 0.25 h, 10^-3 mg/ml, 15 min after perfusion): 16.2 ± 32.3% | activation at 0.1 µg/mL (ciliated cell; 0.25 h, 15 min after perfusion): -5 ± 8.2% | LD50 at 336 h [4, 6]: > 5000 mg/kg | LD50 at 336 h [4, 7]: > 5000 mg/kg | LD50 at 336 h ([4]; iv, intravenous injection, first line (sex not given), 95% 5,679-7,084): 6290 mg/kg | LD50 at 336 h ([4]; iv, intravenous injection, second line (sex not given), 95% 7,214-9,073): 7950 mg/kg | LD50 at 336 h [4, 8]: > 5000 mg/kg | LD50 at 336 h [4, 9]: > 5000 mg/kg | LD50 at 336 h [4, 10]: > 5000 mg/kg | LD50 at 336 h [4, 11]: > 5000 mg/kg | activation at 100 µg/mL (palatine mucosa of frog; 5 min, 5 min after applied): 10.7 ± 19.2% | activation at 10 µg/mL (palatine mucosa of frog; 5 min, 5 min after applied): 20.8 ± 25.5% | activation at 1 µg/mL (palatine mucosa of frog; 5 min, 5 min after applied): 16.2 ± 19.5% | activation at 0.1 µg/mL (palatine mucosa of frog; 5 min, 5 min after applied): 2.6 ± 22.2% | activation at 100 µg/mL (palatine mucosa of frog; 10 min, 10 min after applied): 8.5 ± 23.4% | activation at 10 µg/mL (palatine mucosa of frog; 10 min, 10 min after applied): 18 ± 29.7% | activation at 1 µg/mL (palatine mucosa of frog; 10 min, 10 min after applied): 18.9 ± 22.1% | activation at 0.1 µg/mL (palatine mucosa of frog; 10 min, 10 min after applied): 8.5 ± 21.9% | activation at 100 µg/mL (palatine mucosa of frog; 0.25 h, 15 min after applied): 7.4 ± 24.7% | activation at 10 µg/mL (palatine mucosa of frog; 0.25 h, 15 min after applied): 5.7 ± 24.9% | activation at 1 µg/mL (palatine mucosa of frog; 0.25 h, 15 min after applied): 17.7 ± 34% | activation at 0.1 µg/mL (palatine mucosa of frog; 0.25 h, 15 min after applied): 7.1 ± 27.2% | Effect on MTR of frog palatine mucosa (palatine mucosa of frog; Table 6): acceleration of the MTR of the frog palatine mucosa in a certain dependency on the dose | Effect compared with acetylcholine (palatine mucosa of frog; acetylcholine at 10^-4 mg/ml): subtantially equivalent to that of the acetylcholine | LD50 at 336 h [5]: 2860 mg/kg
